Assay results as given in patent publication US10736883B2, “Triazole furan compounds as agonists of the APJ receptor” (AMGEN INC., priority 2016, dated 2020).

Target: APJ receptor (Homo sapiens (Human), UniProt P35414)
Assay: [35S]GTPγS binding assay on membranes from CHO cells stably expressing human APJ receptor
Format: biochemical
Conditions: membranes of CHO cells stably expressing human APJ receptor, means of several independent experiments, read-out: Activity hAPJ SPA EC50 IP
Summary of the method: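 EC50 values were obtained by non-linear regression of [35S]GTPγS (0.2 nM) binding after 90 min at RT, with nonspecific binding defined by 100 μM GTPγS. Reactions used human APJ–expressing CHO cell membranes on WGA PS beads in HEPES pH 7.5 buffer with 5 mM MgCl2, 200 mM NaCl, 3 μM GDP and 0.1% BSA.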

Sequence of APJ receptor (P35414 whole entry): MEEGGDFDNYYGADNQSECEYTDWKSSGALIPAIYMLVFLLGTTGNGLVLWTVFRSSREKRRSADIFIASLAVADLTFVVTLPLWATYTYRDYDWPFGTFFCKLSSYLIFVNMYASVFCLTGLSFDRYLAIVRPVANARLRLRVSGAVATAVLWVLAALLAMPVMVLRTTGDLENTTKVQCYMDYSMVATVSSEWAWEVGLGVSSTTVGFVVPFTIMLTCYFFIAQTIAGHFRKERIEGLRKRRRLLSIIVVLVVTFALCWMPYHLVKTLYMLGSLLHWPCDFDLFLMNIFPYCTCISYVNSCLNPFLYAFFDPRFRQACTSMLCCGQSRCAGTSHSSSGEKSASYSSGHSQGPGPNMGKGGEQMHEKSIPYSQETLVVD

Row | SMILES | EC50 [nM]
1 | COc1cccc(OC)c1-n1c(NS(=O)(=O)[C@@H](C)[C@@H](O)c2ccc(C#N)cn2)nnc1-c1ccc(C)o1 (single isomer, unassigned) [Example 10.0, (1S,2S)-1-(5-cyano-2-pyridinyl)-N-(4-(2,6-dimethoxyphenyl)-5-(5-methyl-2-furanyl)-4H-1,2,4-triazol-3-yl)-1-hydroxy-2-propanesulfonamide or (1R,2R)-1-(5-cyano-2-pyridinyl)-N-(4-(2,6-dimethoxyphenyl)-5-(5-methyl-2-furanyl)-4H-1,2,4-triazol-3-yl)-1-hydroxy-2-propanesulfonamide] | 0.11
2 | COc1cccc(OC)c1-n1c(NS(=O)(=O)[C@H](C)Cc2ccc(Cl)cn2)nnc1-c1ccco1 (single isomer, unassigned) [Example 11.0, (2R)-1-(5-chloro-2-pyridinyl)-N-(4-(2,6-dimethoxyphenyl)-5-(2-furanyl)-4H-1,2,4-triazol-3-yl)-2-propanesulfonamide or (2S)-1-(5-chloro-2-pyridinyl)-N-(4-(2,6-dimethoxyphenyl)-5-(2-furanyl)-4H-1,2,4-triazol-3-yl)-2-propanesulfonamide] | 0.14
3 | COc1cccc(OC)c1-n1c(NS(=O)(=O)[C@H](C)Cc2ccc(C#N)cn2)nnc1-c1ccc(C)o1 (single isomer, unassigned) [Example 12.0, (2R)-1-(5-cyano-2-pyridinyl)-N-(4-(2,6-dimethoxyphenyl)-5-(5-methyl-2-furanyl)-4H-1,2,4-triazol-3-yl)-2-propanesulfonamide or (2S)-1-(5-cyano-2-pyridinyl)-N-(4-(2,6-dimethoxyphenyl)-5-(5-methyl-2-furanyl)-4H-1,2,4-triazol-3-yl)-2-propanesulfonamide] | 0.15
4 | COc1cccc(OC)c1-n1c(NS(=O)(=O)[C@@H](C)Cc2ncc(C)cn2)nnc1-c1ccc(C)o1 (single isomer, unassigned) [Example 16.0, (2S)—N-(4-(2,6-dimethoxyphenyl)-5-(5-methyl-2-furanyl)-4H-1,2,4-triazol-3-yl)-1-(5-methyl-2-pyrimidinyl)-2-propanesulfonamide or (2R)—N-(4-(2,6-dimethoxyphenyl)-5-(5-methyl-2-furanyl)-4H-1,2,4-triazol-3-yl)-1-(5-methyl-2-pyrimidinyl)-2-propanesulfonamide] | 0.22
5 | COc1cccc(OC)c1-n1c(NS(=O)(=O)[C@@H](C)Cc2ncc(Cl)cc2C(N)=O)nnc1-c1ccco1 (single isomer, unassigned) [Example 17.0, 5-chloro-2-((2S)-2-((4-(2,6-dimethoxyphenyl)-5-(2-furanyl)-4H-1,2,4-triazol-3-yl)sulfamoyl)propyl)-3-pyridinecarboxamide or 5-chloro-2-((2R)-2-((4-(2,6-dimethoxyphenyl)-5-(2-furanyl)-4H-1,2,4-triazol-3-yl)sulfamoyl)propyl)-3-pyridinecarboxamide] | 0.26
6 | COc1cccc(OC)c1-n1c(NS(=O)(=O)[C@H](C)Cc2ncc(Cl)cc2C#N)nnc1-c1ccco1 (single isomer, unassigned) [Example 20.0, (2R)-1-(5-chloro-3-cyano-2-pyridinyl)-N-(4-(2,6-dimethoxyphenyl)-5-(2-furanyl)-4H-1,2,4-triazol-3-yl)-2-propanesulfonamide or (2S)-1-(5-chloro-3-cyano-2-pyridinyl)-N-(4-(2,6-dimethoxyphenyl)-5-(2-furanyl)-4H-1,2,4-triazol-3-yl)-2-propanesulfonamide] | 0.3
7 | CCN(CC)C(=O)c1cc(Cl)cnc1C[C@@H](C)S(=O)(=O)Nc1nnc(-c2ccco2)n1-c1c(OC)cccc1OC (single isomer, unassigned) [Example 21.0, 5-chloro-2-((2R)-2-((4-(2,6-dimethoxyphenyl)-5-(2-furanyl)-4H-1,2,4-triazol-3-yl)sulfamoyl)propyl)-N,N-diethyl-3-pyridinecarboxamide or 5-chloro-2-((2S)-2-((4-(2,6-dimethoxyphenyl)-5-(2-furanyl)-4H-1,2,4-triazol-3-yl)sulfamoyl)propyl)-N,N-diethyl-3-pyridinecarboxamide] | 0.31
8 | COc1cccc(OC)c1-n1c(NS(=O)(=O)[C@H](C)Cc2ccc(Br)cn2)nnc1-c1ccco1 (single isomer, unassigned) [Example 23.0, (2R)-1-(5-bromo-2-pyridinyl)-N-(4-(2,6-dimethoxyphenyl)-5-(2-furanyl)-4H-1,2,4-triazol-3-yl)-2-propanesulfonamide or (2S)-1-(5-bromo-2-pyridinyl)-N-(4-(2,6-dimethoxyphenyl)-5-(2-furanyl)-4H-1,2,4-triazol-3-yl)-2-propanesulfonamide] | 0.36
9 | COc1cccc(OC)c1-n1c(NS(=O)(=O)[C@H](C)Cc2cnc(C)cn2)nnc1-c1ccc(C)o1 (single isomer, unassigned) [Example 24.0, (2R)—N-(4-(2,6-dimethoxyphenyl)-5-(5-methyl-2-furanyl)-4H-1,2,4-triazol-3-yl)-1-(5-methyl-2-pyrazinyl)-2-propanesulfonamide or (2S)—N-(4-(2,6-dimethoxyphenyl)-5-(5-methyl-2-furanyl)-4H-1,2,4-triazol-3-yl)-1-(5-methyl-2-pyrazinyl)-2-propanesulfonamide] | 0.36
10 | COc1cccc(OC)c1-n1c(NS(=O)(=O)[C@H](C)Cc2ccc(F)cn2)nnc1-c1ccco1 (single isomer, unassigned) [Example 25.0, (2R)—N-(4-(2,6-dimethoxyphenyl)-5-(2-furanyl)-4H-1,2,4-triazol-3-yl)-1-(5-fluoro-2-pyridinyl)-2-propanesulfonamide or (2S)—N-(4-(2,6-dimethoxyphenyl)-5-(2-furanyl)-4H-1,2,4-triazol-3-yl)-1-(5-fluoro-2-pyridinyl)-2-propanesulfonamide] | 0.37
11 | COc1cccc(OC)c1-n1c(NS(=O)(=O)[C@H](C)Cc2ccc(C#N)cn2)nnc1-c1ccco1 (single isomer, unassigned) [Example 30.0, (2R)-1-(5-cyano-2-pyridinyl)-N-(4-(2,6-dimethoxyphenyl)-5-(2-furanyl)-4H-1,2,4-triazol-3-yl)-2-propanesulfonamide or (2S)-1-(5-cyano-2-pyridinyl)-N-(4-(2,6-dimethoxyphenyl)-5-(2-furanyl)-4H-1,2,4-triazol-3-yl)-2-propanesulfonamide] | 1.2
12 | COc1cccc(OC)c1-n1c(NS(=O)(=O)[C@H](C)Cc2ccc(C)nn2)nnc1-c1ccc(C)o1 (single isomer, unassigned) [Example 31.0, (2R)—N-(4-(2,6-dimethoxyphenyl)-5-(5-methyl-2-furanyl)-4H-1,2,4-triazol-3-yl)-1-(6-methyl-3-pyridazinyl)-2-propanesulfonamide or (2S)—N-(4-(2,6-dimethoxyphenyl)-5-(5-methyl-2-furanyl)-4H-1,2,4-triazol-3-yl)-1-(6-methyl-3-pyridazinyl)-2-propanesulfonamide] | 1.9
13 | COc1cccc(OC)c1-n1c(NS(=O)(=O)[C@H](C)Cc2cnc(C)cn2)nnc1-c1ccco1 (single isomer, unassigned) [Example 32.0, (2R)—N-(4-(2,6-dimethoxyphenyl)-5-(2-furanyl)-4H-1,2,4-triazol-3-yl)-1-(5-methyl-2-pyrazinyl)-2-propanesulfonamide or (2S)—N-(4-(2,6-dimethoxyphenyl)-5-(2-furanyl)-4H-1,2,4-triazol-3-yl)-1-(5-methyl-2-pyrazinyl)-2-propanesulfonamide] | 2.3
14 | COc1cccc(OC)c1-n1c(NS(=O)(=O)[C@H](C)Cc2ccc(C#N)cn2)nnc1-c1ccc(C)o1 (single isomer, unassigned) [Example 33.0, (2R)-1-(5-cyano-2-pyridinyl)-N-(4-(2,6-dimethoxyphenyl)-5-(5-methyl-2-furanyl)-4H-1,2,4-triazol-3-yl)-2-propanesulfonamide or (2S)-1-(5-cyano-2-pyridinyl)-N-(4-(2,6-dimethoxyphenyl)-5-(5-methyl-2-furanyl)-4H-1,2,4-triazol-3-yl)-2-propanesulfonamide] | 2.4
15 | COc1cccc(OC)c1-n1c(NS(=O)(=O)[C@H](C)Cc2ncc(Br)cn2)nnc1-c1ccco1 (single isomer, unassigned) [Example 36.0, (2R)-1-(5-bromo-2-pyrimidinyl)-N-(4-(2,6-dimethoxyphenyl)-5-(2-furanyl)-4H-1,2,4-triazol-3-yl)-2-propanesulfonamide or (2S)-1-(5-bromo-2-pyrimidinyl)-N-(4-(2,6-dimethoxyphenyl)-5-(2-furanyl)-4H-1,2,4-triazol-3-yl)-2-propanesulfonamide] | 3.5
16 | COc1cccc(OC)c1-n1c(NS(=O)(=O)[C@H](C)Cc2ncc(Cl)cn2)nnc1-c1ccco1 (single isomer, unassigned) [Example 37.0, (2R)-1-(5-chloro-2-pyrimidinyl)-N-(4-(2,6-dimethoxyphenyl)-5-(2-furanyl)-4H-1,2,4-triazol-3-yl)-2-propanesulfonamide or (2S)-1-(5-chloro-2-pyrimidinyl)-N-(4-(2,6-dimethoxyphenyl)-5-(2-furanyl)-4H-1,2,4-triazol-3-yl)-2-propanesulfonamide] | 3.6
17 | COc1cccc(OC)c1-n1c(NS(=O)(=O)[C@@H](C)Cc2cnc(C)cn2)nnc1-c1ccc(C)o1 (single isomer, unassigned) [Example 38.0, (2S)—N-(4-(2,6-dimethoxyphenyl)-5-(5-methyl-2-furanyl)-4H-1,2,4-triazol-3-yl)-1-(5-methyl-2-pyrazinyl)-2-propanesulfonamide or (2R)—N-(4-(2,6-dimethoxyphenyl)-5-(5-methyl-2-furanyl)-4H-1,2,4-triazol-3-yl)-1-(5-methyl-2-pyrazinyl)-2-propanesulfonamide] | 3.8
